Converted amounts (≈) assume the structure as drawn. “And” between values parts separate entries of the source, which are not always exact repeats. Identical values can stand only once.
Columns and labels:
C. albicans (ATCC 10231) [1] = assay: Microdilution MIC90, strain A; type: cell-based; settings: strain A; for MIC90: 24 h, yeast, 24 h at 37 °C, triplicate; for fold greater potency than that of FLC: from MIC values
C. krusei (ATCC 6258) = assay: Microdilution MIC90, strain B; type: cell-based; settings: for MIC90: 24 h, yeast, 24 h at 37 °C, triplicate; for fold greater potency than that of FLC: from MIC values
C. glabrata (ATCC 90030) = assay: Microdilution MIC90, strain C; type: cell-based; settings: yeast, 24 h at 37 °C, triplicate
[2] = tested on: C. parapsilosis (ATCC 22019); assay: Microdilution MIC90, strain D; type: cell-based; settings: 24 h
[3] = tested on: C. tropicalis (PTCC 5028); assay: Microdilution MIC90, strain E; type: cell-based; settings: 24 h
[4] = tested on: Asp. nidulans (PTCC 5014); assay: Microdilution MIC90, strain F; type: cell-based, Aspergillus nidulans; settings: Aspergillus nidulans, PTCC5014, 48 h, filamentous fungi, 48 h at 37 °C, triplicate
[5] = tested on: Asp. flavus (ATCC 204304); assay: Microdilution MIC90, strain G; type: cell-based, Aspergillus flavus; settings: Aspergillus flavus, ATCC204304, 48 h, filamentous fungi, 48 h at 37 °C, triplicate
[6] = tested on: Asp. fumigatus (PTCC 5009); assay: Microdilution MIC90, strain H; type: cell-based; settings: filamentous fungi, 48 h at 37 °C, triplicate
Asp. niger (PTCC 5154) = assay: Microdilution MIC90, strain I; type: cell-based, Aspergillus niger; settings: filamentous fungi, 48 h at 37 °C, triplicate
Asp. terreus (PTCC 5023) = assay: Microdilution MIC90, strain J; type: cell-based, Aspergillus terreus; settings: filamentous fungi, 48 h at 37 °C, triplicate
T. rubrum (PTCC 5143) = assay: Microdilution MIC90, strain K; type: cell-based, Trichophyton rubrum; settings: Trichophyton rubrum, PTCC5143, 48 h, filamentous fungi, 48 h at 37 °C, triplicate
[7] = tested on: Microsporum gypseum (PTCC 5070); assay: Microdilution MIC90, strain L; type: cell-based; settings: filamentous fungi, 48 h at 37 °C, triplicate
[8] = tested on: T. mentagrophytes (PTCC 5054); assay: Microdilution MIC90, strain M; type: cell-based; settings: Trichophyton mentagrophytes, PTCC5054, 48 h
[9] = tested on: T. schoenleinii (PTCC 5221); assay: Microdilution MIC90, strain N; type: cell-based; settings: Trichophyton schoenleinii, PTCC5221, 48 h
M. canis (PTCC 5069) = assay: Microdilution MIC90, strain O; type: cell-based; settings: Microsporum canis, PTCC5069, 48 h
[10] = tested on: FLC-resistant clinical Candida isolate R1 (C. albicans); assay: PMIC90, FLC-resistant isolate R1; type: cell-based; settings: strain R1, planktonic
[11] = tested on: FLC-resistant clinical Candida isolate R2 (C. albicans); assay: PMIC90, FLC-resistant isolate R2; type: cell-based; settings: strain R2, planktonic
[12] = tested on: FLC-resistant clinical Candida isolate R3 (C. albicans); assay: PMIC90, FLC-resistant isolate R3; type: cell-based; settings: strain R3, planktonic
[13] = tested on: FLC-resistant clinical Candida isolate R4 (C. albicans); assay: PMIC90, FLC-resistant isolate R4; type: cell-based; settings: strain R4, planktonic
[14] = tested on: FLC-resistant clinical Candida isolate R5 (C. albicans); assay: PMIC90, FLC-resistant isolate R5; type: cell-based; settings: strain R5, planktonic
[15] = tested on: FLC-resistant clinical Candida isolate R6 (C. albicans); assay: PMIC90, FLC-resistant isolate R6; type: cell-based; settings: strain R6, planktonic
[16] = tested on: FLC-resistant clinical Candida isolate R7 (C. glabrata); assay: PMIC90, FLC-resistant isolate R7; type: cell-based; settings: strain R7, planktonic
[17] = tested on: FLC-resistant clinical C. albicans isolate (R1) biofilm; assay: Antibiofilm MTT reduction assay, strain R1; type: cell-based; settings: triplicate
[18] = tested on: FLC-resistant clinical C. albicans isolate (R2) biofilm; assay: Antibiofilm MTT reduction assay, strain R2; type: cell-based; settings: triplicate
C. albicans (ATCC 10231) [19] = assay: Time-kill assay; type: cell-based; settings: 24 h period; for time-kill effect at MIC: at MIC (0.5 μg/mL)
[20] = tested on: human red blood cells (hRBCs); assay: Hemolysis assay; type: cell-based; settings: 100 μg/mL, 2 h at 37 °C
PANC-1 = assay: MTT cytotoxicity assay, PANC-1; type: cell-based, human; settings: 48 h; for toxicity (in words): PANC-1, at 30 and 60 μg/mL
[21] = MTT cytotoxicity assay, A-431; type: cell-based, human; settings: human, A-431 epidermoid carcinoma cells
HDF normal cells = assay: MTT cytotoxicity assay, HDF; type: cell-based, human; settings: HDF normal cell line, up to 100 μg/mL, 48 h
C. albicans (ATCC 10231) [22] = assay: Membrane permeabilization assay; type: cell-based; settings: 8b, 8c at 1 × MIC, 2 × MIC, 4 × MIC (0.5, 1, 2 μg/mL); AMB 1 μg/mL; 3 h at 28 °C
C. albicans (ATCC 10231) [23] = assay: Murine model of systemic candidiasis; type: in vivo; settings: neutropenic mice (n = 5), 15 mg/kg oral gavage, left kidney tissue
[24] = tested on: FLC-resistant clinical Candida isolates (R1–R7); assay: PMIC, seven FLC-resistant clinical Candida isolates; type: cell-based; settings: read-out: MIC (growth inhibition concentrations)
A-431 = assay: MTT cytotoxicity assay, A-431; type: cell-based, human; settings: 48 h, MTT
[25] = tested on: dermatophyte isolates K–O; assay: Microdilution MIC, dermatophyte isolates K–O; type: cell-based
[26] = Aspergillus fumigatus, PTCC5009, 48 h
[27] = Aspergillus niger, PTCC5154, 48 h
[28] = Aspergillus terreus, PTCC5023, 48 h
[29] = at 4 × MIC (2 μg/mL for 8b, 8c; 64 μg/mL for FLC)

Row | Compound | MIC90 (C. albicans (ATCC 10231) [1]) | MIC90 (C. krusei (ATCC 6258)) | MIC90 (C. glabrata (ATCC 90030); 24 h) | MIC90 [2] | MIC90 [3] | MIC90 [5] | MIC90 [6, 26] | MIC90 (Asp. niger (PTCC 5154); [27]) | MIC90 (Asp. terreus (PTCC 5023); [28]) | MIC90 (T. rubrum (PTCC 5143)) | MIC90 [8] | MIC90 [9] | MIC90 (M. canis (PTCC 5069)) | PMIC90 [10] | PMIC90 [11] | PMIC90 [12] | PMIC90 [13] | PMIC90 [14] | PMIC90 [15] | PMIC90 [16] | other results
1 | COc1ccc(NC(=O)Nc2nnc(SCC(O)(Cn3cncn3)c3ccc(F)cc3F)s2)cc1 (stereo not drawn) [Compound 8b, 1-(5-((2-(2,4-Difluorophenyl)-2-hydroxy-3-(1H-1,2,4-triazol-1-yl)propyl)thio)-1,3,4-thiadiazol-2-yl)-3-(4-methoxyphenyl)urea] | 0.5 µg/mL (≈ 0.962 µM) | 0.5 µg/mL (≈ 0.962 µM) | 1 to 16 µg/mL (≈ 1.92 to 30.8 µM) | 2 µg/mL (≈ 3.85 µM) | 1 µg/mL (≈ 1.92 µM) | 8 µg/mL (≈ 15.4 µM) | 2 to 4 µg/mL (≈ 3.85 to 7.7 µM) | 2 to 4 µg/mL (≈ 3.85 to 7.7 µM) | 2 to 4 µg/mL (≈ 3.85 to 7.7 µM) | 2 µg/mL (≈ 3.85 µM) | 4 µg/mL (≈ 7.7 µM) | 8 µg/mL (≈ 15.4 µM) | 8 µg/mL (≈ 15.4 µM) | 0.25 µg/mL | 0.5 µg/mL | 2 µg/mL | 1 µg/mL | 2 µg/mL | 2 µg/mL | 1 µg/mL | fold greater potency than that of FLC (C. albicans (ATCC 10231) [1]): 32 fold; fold greater potency than that of FLC (C. krusei (ATCC 6258)): 32 fold; MIC90 (C. glabrata (ATCC 90030)): 1 μg·mL^–1; MIC90 [4]: 8 µg/mL (≈ 15.4 µM); MIC90 [6]: 1 μg·mL^–1; MIC90 (Asp. niger (PTCC 5154)): 4 μg·mL^–1; MIC90 (Asp. terreus (PTCC 5023)): 4 μg·mL^–1; MIC90 [7]: 4 μg·mL^–1; SMIC90 (sessile minimum inhibitory concentration that reduced the metabolic activity of biofilms by 90%) [17]: 0.5 µg/mL; SMIC90 (sessile minimum inhibitory concentration that reduced the metabolic activity of biofilms by 90%) [18]: 1 µg/mL; time-kill effect at 4 × MIC (C. albicans (ATCC 10231) [19]; [29]): fungicidal activity of compound 8b significantly enhanced; time-kill effect at MIC (C. albicans (ATCC 10231) [19]): fungicidal effect; hemolysis (in words) [20]: limited hemolysis; toxicity (in words) (PANC-1): no toxicity; viability at 48 h, 100 μg/mL [21]: < 50%; toxicity (in words) (HDF normal cells): none of the active compounds displayed toxicity; cellular uptake of the PI dye (C. albicans (ATCC 10231) [22]): none of our compounds 8b and 8c (at 1 × MIC, 2 × MIC, or 4 × MIC) induced the cellular uptake of the PI dye; kidney fungal burden, CFU/g (mean ± SD) (C. albicans (ATCC 10231) [23]): 414 CFU/g and 414 ± 67.7 ^b CFU/g; MIC [24]: 0.25 to 2 µg/mL (≈ 0.481 to 3.85 µM)
2 | O=C(Nc1ccc(F)cc1)Nc1nnc(SCC(O)(Cn2cncn2)c2ccc(F)cc2F)s1 (stereo not drawn) [Compound 8c, 1-(5-((2-(2,4-Difluorophenyl)-2-hydroxy-3-(1H-1,2,4-triazol-1-yl)propyl)thio)-1,3,4-thiadiazol-2-yl)-3-(4-fluorophenyl)urea] | 0.5 µg/mL (≈ 0.985 µM) | 0.5 µg/mL (≈ 0.985 µM) | 0.5 µg/mL (≈ 0.985 µM) | 2 µg/mL (≈ 3.94 µM) | 0.5 µg/mL (≈ 0.985 µM) | 16 µg/mL (≈ 31.5 µM) | 0.5 µg/mL (≈ 0.985 µM) | 0.5 µg/mL (≈ 0.985 µM) | 0.5 µg/mL (≈ 0.985 µM) | 4 µg/mL (≈ 7.88 µM) | 2 µg/mL (≈ 3.94 µM) | 16 µg/mL (≈ 31.5 µM) | 16 µg/mL (≈ 31.5 µM) | 0.5 µg/mL | 1 µg/mL | 2 µg/mL | 2 µg/mL | 2 µg/mL | 2 µg/mL | 2 µg/mL | fold greater potency than that of FLC (C. albicans (ATCC 10231) [1]): 32 fold; fold greater potency than that of FLC (C. krusei (ATCC 6258)): 32 fold; MIC90 [4]: 16 µg/mL (≈ 31.5 µM); SMIC90 (sessile minimum inhibitory concentration that reduced the metabolic activity of biofilms by 90%) [17]: 1 µg/mL; SMIC90 (sessile minimum inhibitory concentration that reduced the metabolic activity of biofilms by 90%) [18]: 1 µg/mL; time-kill effect at 4 × MIC (C. albicans (ATCC 10231) [19]; [29]): high fungicidal effect; time-kill effect at MIC (C. albicans (ATCC 10231) [19]): fungistatic effect; hemolysis (in words) [20]: limited hemolysis; cell survival (PANC-1; PANC-1, 100 μg/mL): > 40%; toxicity (in words) (PANC-1): no toxicity; toxicity (in words) (A-431; A-431, 100 μg/mL): some toxicity levels; toxicity (in words) (A-431; A-431, up to 60 μg/mL): no toxicity; toxicity (in words) (HDF normal cells): none of the active compounds displayed toxicity; cellular uptake of the PI dye (C. albicans (ATCC 10231) [22]): none of our compounds 8b and 8c (at 1 × MIC, 2 × MIC, or 4 × MIC) induced the cellular uptake of the PI dye; kidney fungal burden, CFU/g (mean ± SD) (C. albicans (ATCC 10231) [23]): 438 CFU/g and 438 ± 54.8 ^b CFU/g; MIC [24]: 0.25 to 2 µg/mL (≈ 0.493 to 3.94 µM)
3 | OC(Cn1cncn1)(Cn1cncn1)c1ccc(F)cc1F [FLC, Fluconazole, reference compound] | 16 µg/mL (≈ 52.2 µM) | 16 µg/mL (≈ 52.2 µM) | 16 µg/mL (≈ 52.2 µM) | 4 µg/mL (≈ 13.1 µM) | 4 µg/mL (≈ 13.1 µM) | 2 µg/mL (≈ 6.53 µM) | 4 µg/mL (≈ 13.1 µM) | 4 µg/mL (≈ 13.1 µM) | 4 µg/mL (≈ 13.1 µM) | 1 µg/mL (≈ 3.27 µM) | 4 µg/mL (≈ 13.1 µM) | 2 µg/mL (≈ 6.53 µM) | 1 µg/mL (≈ 3.27 µM) | >64 µg/mL | >64 µg/mL | >64 µg/mL | >64 µg/mL | >64 µg/mL | >64 µg/mL | >64 µg/mL | time-kill effect at 4 × MIC (C. albicans (ATCC 10231) [19]; […]; 64 μg/mL for FLC)): no significant effect; kidney fungal burden, CFU/g (mean ± SD) (C. albicans (ATCC 10231) [23]): 512 CFU/g and 512 ± 63.5 ^b CFU/g; MIC [24]: ≥ 64 µg/mL; MIC [25]: 1 to 4 µg/mL (≈ 3.27 to 13.1 µM)

Source: paper PMC8482776 (ACS Omega, 2021)
